Data published in patent publication US10435388B2, “Selective inhibitors of clinically important mutants of the EGFR tyrosine kinase” (CS PHARMATECH LIMITED, priority 2016, dated 2019).
Counter-ions that a name gives are not always drawn.

How the values were obtained:
Conditions in all cases: cellular proliferation, several runs
PC9 cells (SM) = experiment: PC-9 growth inhibition assay (cell proliferation), Method B; format: cell-based, human
Method: (§1) Cell Proliferation Assays—Method B
(§2) Test compounds were dissolved in DMSO at 30 mM.
(§3) The final concentration was 1,000 cells/well. Add medium only as low control. […] 5% CO2 incubator for 72 hours.
(§4) After 72 hours incubation, remove the plates from incubator and equilibrate at room temperature for 15 minutes. Incubate the CellTiter Glo reagents (Promega, G9243) at 37° C. before the experiment. The buffer was equilibrated to room temperature and used to dissolve the substrate. To determine the cell viability, add 40 μL of CellTiter-Glo reagent into each well to be detected (at 1:1 to culture medium). Then the place the plates at room temperature for 30 min followed by read on EnSpire (PerkinElmer).
(§5) For estimation of IC50, the luminescence readout are transformed to % Inhibition by applying the following equation: The IC50 was then
(§6) [formula] calculated by fitting in XLFit to a four parameters logistic curve.
PC-9 Growth Inhibition Assay (Cell Proliferation).
The inhibition assay of PC-9 cells was conducted in the same manner as described above for H1975 cells.

H1975 cells (DM) = experiment: H1975 inhibition assay (cell proliferation), Method B; format: cell-based
Method: as §1
H1975 Inhibition Assay (Cell Proliferation).
as §2, §3, §4, §5, §6

A431 cells (WT) = experiment: A431 inhibition assay (cell proliferation), Method B; format: cell-based, human
Method: as §1
A431 Inhibition Assay, (Cell Proliferation).
The rest procedure was conducted in the same manner as described above for H1975 cells.

| Compound | IC50 (PC9 cells (SM); Homo sapiens, PC-9, 72 h) | IC50 (PC9 cells (SM); 72 h) | IC50 (H1975 cells (DM); Homo sapiens, NCI-H1975, 72 h) | IC50 (H1975 cells (DM); 72 h) | IC50 (A431 cells (WT); Homo sapiens, A-431, 72 h) | IC50 (A431 cells (WT); 72 h) | IC50 (PC9 cells (SM); 72 h, hydrochloride) | IC50 (H1975 cells (DM); 72 h, hydrochloride) | IC50 (A431 cells (WT); 72 h, hydrochloride) |
| --- | --- | --- | --- | --- | --- | --- | --- | --- | --- |
| C=CC(=O)Nc1cc(Nc2nccc(-c3c[nH]c4c(=O)[nH]ccc34)n2)c(OC)cc1N(C)CCN(C)C [Example 22, N-(2-((2-(Dimethylamino)ethyl)(methyl)amino)-4-methoxy-5-((4-(7-oxo-6,7-dihydro-1H-pyrrolo[2,3-c]pyridin-3-yl)pyrimidin-2-yl)amino)phenyl) acrylamide] | 0.0626 µM | 0.0524 µM | 0.137 µM | 0.0927 µM | 1.69 µM | 1.19 µM | – | – | – |
| C=CC(=O)Nc1cc(Nc2ncc(Cl)c(-c3cncc(C(N)=O)c3)n2)c(OC)cc1N(C)CCN(C)C [Example 24, 5-(2-((5-Acrylamido-4-((2-(dimethylamino)ethyl)(methyl)amino)-2-methoxyphenyl)amino)-5-chloropyrimidin-4-yl)nicotinamide hydrochloride] | 0.067 µM | – | 0.103 µM | – | 6.99 µM | – | – | – | – |
| C=CC(=O)Nc1cc(Nc2ncc(Cl)c(-c3ccc(NC)nc3)n2)c(OC)cc1N(C)CCN(C)C [Example 25, N-(5-((5-Chloro-4-(6-(methylamino)pyridin-3-yl)pyrimidin-2-yl)amino)-2-((2-(dimethylamino)ethyl)(methyl)amino)-4-methoxyphenyl) acrylamide] | 0.0631 µM | – | 0.0198 µM | – | 2.1 µM | – | – | – | – |
| C=CC(=O)Nc1cc(Nc2ncc(Cl)c(-c3ccc(N(C)C)nc3)n2)c(OC)cc1N(C)CCN(C)C [Example 26, N-(5-((5-Chloro-4-(6-(dimethylamino)pyridin-3-yl)pyrimidin-2-yl)amino)-2-((2-(dimethylamino)ethyl)(methyl)amino)-4-methoxyphenyl) acrylamide] | 0.0373 µM | – | 0.025 µM | – | 1.03 µM | – | – | – | – |
| C=CC(=O)Nc1cc(Nc2nccc(-c3cnc(NC)c(C(N)=O)c3)n2)c(OC)cc1N(C)CCN(C)C [Example 28, 5-(2-((5-Acrylamido-4-((2-(dimethylamino)ethyl)(methyl)amino)-2-methoxyphenyl)amino)pyrimidin-4-yl)-2-(methylamino)nicotinamide] | 0.022 µM | 0.026 µM | – | – | 2.23 µM | 1.71 µM | – | – | – |
| C=CC(=O)Nc1cc(Nc2nccc(-n3nc(C(N)=O)c4c3CCC4)n2)c(OC)cc1N(C)CCN(C)C [Example 29, 1-(2-((5-Acrylamido-4-((2-(dimethylamino)ethyl)(methyl)amino)-2-methoxyphenyl)amino)pyrimidin-4-yl) cyclopenta[c]pyrazole-3-carboxamide] | 0.0237 µM | – | 0.00524 µM | – | 0.777 µM | – | – | – | – |
| C=CC(=O)Nc1cc(Nc2nccc(-c3cc(C(N)=O)c4c(c3)c(Cl)cn4C)n2)c(OC)cc1N(C)CCN(C)C [Example 32, 5-(2-((5-Acrylamido-4-((2-(dimethylamino)ethyl)(methyl)amino)-2-methoxyphenyl)amino)pyrimidin-4-yl)-3-chloro-1N-methyl-1H-indole-7-carboxamide hydrochloride] | 0.00852 µM | – | 0.00392 µM | – | 1.08 µM | – | 0.0119 µM | 0.0032 µM | 0.784 µM |
| C=CC(=O)Nc1cc(Nc2nccc(-c3c[nH]c(=O)c4c3ccn4C)n2)c(OC)cc1N(C)CCN(C)C [Example 33, N-(2-((2-(Dimethylamino)ethyl)(methyl)amino)-4-methoxy-5-((4-(1N-methyl-7-oxo-6,7-dihydro-1H-pyrrolo[2,3-c]pyridin-4-yl)pyrimidin-2-yl)amino)phenyl) acrylamide] | 0.0099 µM | – | 0.00633 µM | – | 0.0885 µM | – | – | – | – |
| C=CC(=O)Nc1cc(Nc2nccc(-n3nc(C(F)F)c4ccccc43)n2)c(OC)cc1N(C)CCN(C)C [Example 35, N-(5-((4-(3-(Difluoromethyl)-1H-indazol-1-yl)pyrimidin-2-yl)amino)-2-((2-(dimethylamino)ethyl)(methyl)amino)-4-methoxyphenyl) acrylamide hydrochloride] | 0.0333 µM | – | 0.0294 µM | – | 2.02 µM | – | – | – | – |
| C=CC(=O)Nc1cc(Nc2nccc(-c3cc(C)c[nH]c3=O)n2)c(OC)cc1N(C)CCN(C)C [Example 37, N-(2-((2-(Dimethylamino)ethyl)(methyl)amino)-4-methoxy-5-((4-(5-methyl-2-oxo-1,2-dihydropyridin-3-yl)pyrimidin-2-yl)amino)phenyl) acrylamide] | 0.022 µM | – | 0.0219 µM | – | 0.588 µM | – | – | – | – |
| C=CC(=O)Nc1cc(Nc2ncc(Cl)c(-c3c[nH]c(=O)c(C)c3)n2)c(OC)cc1N(C)CCN(C)C [Example 38, N-(5-((5-Chloro-4-(3-methyl-2-oxo-1,6-dihydropyridin-5-yl)pyrimidin-2-yl)amino)-2-((2-(dimethylamino)ethyl)(methyl)amino)-4-methoxyphenyl) acrylamide] | 0.0827 µM | – | 0.082 µM | – | 1.32 µM | – | – | – | – |
| C=CC(=O)Nc1cc(Nc2nccc(-c3c[nH]c4c(C(=O)NC)cccc34)n2)c(OC)cc1N(C)CCN(C)C [Example 39, N-Methyl 3-(2-((5-acrylamido-4-((2-(dimethylamino)ethyl)(methyl)amino)-2-methoxyphenyl)amino)pyrimidin-4-yl)-1H-indole-7-carboxamide] | 0.00074 µM | – | 0.00052 µM | – | 0.0423 µM | – | – | – | – |
| C=CC(=O)Nc1cc(Nc2nccc(-c3cc(NC)cc4c3ccn4C)n2)c(OC)cc1N(C)CCN(C)C [Example 40, N-(5-(4-(1-Methyl-6-(methylamino)-1H-indol-4-yl)pyrimidin-2-ylamino)-2-(N-(2-(dimethylamino)ethyl)-N-methylamino)-4-methoxyphenyl) acrylamide] | 0.063 µM | – | 0.0435 µM | – | 1.88 µM | – | – | – | – |
| C=CC(=O)Nc1cc(Nc2nccc(-n3nc(NS(C)(=O)=O)c4ccccc43)n2)c(OC)cc1N(C)CCN(C)C [Example 44, N-(5-(4-(3-(N-methanesulfonylamido)-1H-indazol-1-yl)pyrimidin-2-ylamino)-2-(N-(2-(dimethylamino)ethyl)-N-methylamino)-4-methoxyphenyl) acrylamide] | 0.475 µM | – | 0.174 µM | – | 9.07 µM | – | – | – | – |
| C=CC(=O)Nc1cc(Nc2nccc(-c3c[nH]c4c(-c5cc[nH]n5)cccc34)n2)c(OC)cc1N(C)CCN(C)C [Example 46, N-(5-(4-(7-(1H-Pyrazol-3-yl)-1H-indol-3-yl)pyrimidin-2-ylamino)-2-(N-(2-(dimethylamino)ethyl)-N-methylamino)-4-methoxyphenyl) acrylamide] | 0.0212 µM | – | 0.116 µM | – | 0.253 µM | – | – | – | – |
| C=CC(=O)Nc1cc(Nc2ncc(Cl)c(-c3cc(C(N)=O)cc4c3ccn4C)n2)c(OC)cc1N(C)CCN(C)C [Example 47, 4-(2-(5-Acrylamido-4-((2-(dimethylamino)ethyl)(methyl)amino)-2-methoxyphenylamino)-5-chloropyrimidin-4-yl)-1-methyl-1H-indole-6-carboxamide] | 0.0123 µM | – | 0.00879 µM | – | 0.404 µM | – | – | – | – |
| C=CC(=O)Nc1cc(Nc2nccc(-c3c[nH]c4c(C(C)(C)C)cccc34)n2)c(OC)cc1N(C)CCN(C)C [Example 48, N-(5-(4-(7-t-Butyl-1H-indol-3-yl)pyrimidin-2-ylamino)-2-(N-(2-(dimethylamino)ethyl)-N-methylamino)-4-methoxyphenyl) acrylamide] | 0.00401 µM | – | 0.00348 µM | – | 0.265 µM | – | – | – | – |
| C=CC(=O)Nc1cc(Nc2nccc(-n3cc(C(N)=O)c4ncccc43)n2)c(OC)cc1N(C)CCN(C)C [Example 49, 1-(2-(5-Acrylamido-4-((2-(dimethylamino)ethyl)(methyl)amino)-2-methoxyphenylamino)pyrimidin-4-yl)-1H-pyrrolo[3,2-b]pyridine-3-carboxamide] | 0.00061 µM | – | 0.00184 µM | – | 0.137 µM | – | – | – | – |
| C=CC(=O)Nc1cc(Nc2nccc(-c3c[nH]c4c(N(C)C)nccc34)n2)c(OC)cc1N(C)CCN(C)C [Example 50, N-(5-(4-(7-(Dimethylamino)-1H-pyrrolo[2,3-c]pyridin-3-yl)pyrimidin-2-ylamino)-2-(N-(2-(dimethylamino)ethyl)-N-methylamino)-4-methoxyphenyl) acrylamide] | 0.0144 µM | – | 0.00762 µM | – | 0.118 µM | – | – | – | – |
| C=CC(=O)Nc1cc(Nc2nccc(-n3cc(C(=O)NC)c4ncccc43)n2)c(OC)cc1N(C)CCN(C)C [Example 51, N-Methyl 1-(2-(5-acrylamido-4-((2-(dimethylamino)ethyl)(methyl)amino)-2-methoxyphenylamino)pyrimidin-4-yl)-1H-pyrrolo[3,2-b]pyridine-3-carboxamide] | 0.00151 µM | – | 0.00301 µM | – | 0.239 µM | – | – | – | – |
| C=CC(=O)Nc1cc(Nc2ncc(Cl)c(-n3nc(NC)c4ccccc43)n2)c(OC)cc1N(C)CCN(C)C [Example 52, N-(5-(5-Chloro-4-(3-(methylamino)-1H-indazol-1-yl)pyrimidin-2-ylamino)-2-(N-(2-(dimethylamino)ethyl)-N-methylamino)-4-methoxyphenyl) acrylamide] | 0.0172 µM | – | 0.00406 µM | – | 0.325 µM | – | – | – | – |
